Experimental data reported in patent publication US4189604A, “Bestatin” (Zaidan Hojin Biseibutsu Kagaku Kenkyu Kai, priority 1975, dated 1980).
Values after ≈ are worked out from the molar mass of the structure shown.

Key:
aminopeptidase B = target: T1, aminopeptidase B (Rattus norvegicus, UniProt O09175); experiment: Inhibitory activity against aminopeptidase B; format: biochemical
T1 construct: aminopeptidase B solution which is prepared by Sephadex 100 chromatography as described by Hopusu et al; from tissue
T1 sequence (O09175 1-650): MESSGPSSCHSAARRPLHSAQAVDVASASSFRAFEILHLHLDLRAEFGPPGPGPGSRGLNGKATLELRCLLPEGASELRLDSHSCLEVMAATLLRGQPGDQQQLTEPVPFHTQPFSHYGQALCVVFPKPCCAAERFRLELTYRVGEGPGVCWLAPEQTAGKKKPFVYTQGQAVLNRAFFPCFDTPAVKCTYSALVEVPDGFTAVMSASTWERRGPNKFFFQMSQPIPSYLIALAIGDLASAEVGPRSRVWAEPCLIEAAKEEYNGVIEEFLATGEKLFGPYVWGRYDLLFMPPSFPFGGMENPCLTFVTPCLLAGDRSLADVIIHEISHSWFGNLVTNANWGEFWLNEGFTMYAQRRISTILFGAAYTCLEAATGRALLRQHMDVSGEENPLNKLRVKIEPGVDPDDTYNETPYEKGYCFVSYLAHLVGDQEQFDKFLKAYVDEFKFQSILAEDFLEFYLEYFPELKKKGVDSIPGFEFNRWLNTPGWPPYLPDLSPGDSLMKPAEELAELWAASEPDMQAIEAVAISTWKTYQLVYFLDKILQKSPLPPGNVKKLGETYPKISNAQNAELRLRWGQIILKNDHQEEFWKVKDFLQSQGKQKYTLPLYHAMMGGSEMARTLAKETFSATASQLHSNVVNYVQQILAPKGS
Protocol: (A) Inhibitory activity against aminopeptidase B Testing method: The method described by […] in Archives of Biochemistry and Biophysics 114, 557, (1966) was modfied. To the mixture of 0.3 ml. of 1 mM arginine β-naphthylamide and 1.0 Ml. of 0.1 M Tris hydrochloride buffer (pH 7.0), 0.7 Ml. of distilled water with or without a test material is added and warmed at 37° C. for 3 minutes. The reaction is started by addition of 0.2 ml. of aminopeptidase B solution which is prepared by Sephadex 100 chromatography as described by Hopusu et al. […] Fifteen minutes at room temperature thereafter, absorbance (a) at 530 nm is measured by spectrophotometer. […] The inhibition percent is calculated as follows: (b-a)/b×100.

[1] = test system: plaque forming cells in the spleen; experiment: Effect on humoral antibody formation to Sheep Red Blood Cell (SRBC) in mice (JERNE's hemolytic plaque technique); format: in vivo, Mice (dd/y female); conditions: for Antibody Forming Cells Number / Antibody Forming Cells Treated Group / Non-treated Group: intraperitoneal, four days
Protocol: The compound of Example 28 was also tested for its humoral antibody formation to find its efficacy as an immunizing cancer inhibitor. […] For the humoral antibody formation of Bestatin per se see J. Antibiotics, 29(8), 857-859 (August, 1976).
The effect of (2RS,3RS)-3-amino-2-hydroxy-4-hydroxyphenylbutanoyl-(S)-leucine on humoral antibody formation to Sheep Red Blood Cell (SRBC) in mice was studied as follows.
Mice (dd/y female) were immunized by intravenous injection of 10^8 SRBC. Intraperitoneal injection of (2RS,3RS)-3-amino-2-hydroxy-4-hydroxyphenylbutanoyl-(S)-leucine was made soon afterwards.
Four days thereafter the number of plaque forming cells in the spleen were enumerated by JERNE's hemolytic plaque technique [Jerne, N. K.; A. A. Nordin & C. Henry: "The Agar Plaque Technique for Recognizing Antibody-producing Cells" in cell-bound antibodies (Wistar Institute Press, Philadelphia, 1963), pp. 109-122].

[2] = Contraceptive property: antifertility of Bestatin; format: in vivo, ICR JCL female mice
Protocol: (C) Contraceptive property:
Antifertility of Bestatin:
Immediately after subcutaneously administering Bestatin (10 mg./kg.) to ICR JCL female mice at the age of puberty, these mice were placed with male mice of similar line. Female mice which had copulated were killed two days after formulation of vaginal plug and the ova were collected from their uterine tubes so as to examine whether they had been fertilized or not. The fertilized ova were at 8-16 cell period.

[3] = Organ distribution of Bleomycin B2 in the presence of Bestatin; format: in vivo, ICR male mice; conditions: 1 hour, average of 3
Protocol: (B) Organ distribution of Bleomycin in the presence of Bestatin:
100 mg./kg. of Bleomycin B2 was subcutaneously administered to each of three ICR male mice (4 weeks of age) and 100 mg./kg. of Bleomycin B2 and 100 mg./kg. of Bestatin were subcutaneously administered simultaneously to each of three similar mice. These 6 mice were killed one hour after administration and the quantity of Bleomycin B2 remaining in the serum and organs was determined by a thin layer disc method employing Bacillus subtilis PCI219 as the test microorganism. The results are as listed in Table 2, wherein the numerals show average values in mcg./ml.

[4] = BLM 100 mg/kg + BST (Bestatin) 100 mg/kg s.c. simultaneously

CC(C)C[C@H](NC(=O)[C@@H](O)[C@H](N)Cc1ccccc1)C(=O)O [No. 1, [(2S,3R)-3-amino-2-hydroxy-4-phenylbutanoyl]-L-leucine]
ID50 (aminopeptidase B; Biological Testing table after Example 29): 0.10 µg/mL (≈ 0.324 µM) | ID50 (aminopeptidase B; pH 7.0, 37° C., 30 minutes, Table 1): 0.10 µg/mL (≈ 0.324 µM) | number of antibody forming cells compared with non-treated group ([1]; 10 mcg., in words): nearly equal to that of non-treated group | Antibody Forming Cells Number ([1]; dose 1 mg.): 190,000±7,100 | Antibody Forming Cells Treated Group / Non-treated Group ([1]; dose 1 mg.): 1.52 | Antibody Forming Cells Number ([1]; dose 10 mcg.): 136,250±6,500 | Antibody Forming Cells Treated Group / Non-treated Group ([1]; dose 10 mcg.): 1.09 | antifertility ([2]; 10 mg./kg. s.c.): has an antifertility property | Fertilized ovum (number) ([2]; 10 mg./kg. s.c., Female No. 1): 4 | Fertilized ovum (percent) ([2]; 10 mg./kg. s.c., Female No. 1): 40% | Non-fertilized ovum (number) ([2]; 10 mg./kg. s.c., Female No. 1): 6 | Non-fertilized ovum (percent) ([2]; 10 mg./kg. s.c., Female No. 1): 60% | Number of collected ovum ([2]; 10 mg./kg. s.c., Female No. 1): 10 | Number of corpus luteum ([2]; 10 mg./kg. s.c., Female No. 1): 10 | Fertilized ovum (number) ([2]; 10 mg./kg. s.c., Female No. 2): 6 | Fertilized ovum (percent) ([2]; 10 mg./kg. s.c., Female No. 2): 31.6% | Non-fertilized ovum (number) ([2]; 10 mg./kg. s.c., Female No. 2): 13 | Non-fertilized ovum (percent) ([2]; 10 mg./kg. s.c., Female No. 2): 68.4% | Number of collected ovum ([2]; 10 mg./kg. s.c., Female No. 2): 19 | Number of corpus luteum ([2]; 10 mg./kg. s.c., Female No. 2): 19 | Fertilized ovum (number) ([2]; 10 mg./kg. s.c., Total N=2): 10 | Fertilized ovum (percent) ([2]; 10 mg./kg. s.c., Total N=2): 34.5% | Non-fertilized ovum (number) ([2]; 10 mg./kg. s.c., Total N=2): 19 | Non-fertilized ovum (percent) ([2]; 10 mg./kg. s.c., Total N=2): 65.5% | Number of collected ovum ([2]; 10 mg./kg. s.c., Total N=2): 29 | Number of corpus luteum ([2]; 10 mg./kg. s.c., Total N=2): 29 | fertility of the ova collected ([2]; copulated 4-16 hours after administration, control 70%): 34.5%

Bleomycin B2 [BLM]
Bleomycin B2 remaining in Brain [3, 4]: 2.4 µg/mL | Bleomycin B2 remaining in Kidney [3, 4]: 84.0 µg/mL | Bleomycin B2 remaining in Liver [3, 4]: 0 µg/mL | Bleomycin B2 remaining in Lung [3, 4]: 21.2 µg/mL | Bleomycin B2 remaining in Serum [3, 4]: 140 µg/mL | Bleomycin B2 remaining in Skin [3, 4]: 42.0 µg/mL | Bleomycin B2 remaining in Spleen [3, 4]: 5.8 µg/mL | Bleomycin B2 remaining in Stomach [3, 4]: 2.5 µg/mL | Bleomycin B2 remaining in Brain ([3]; BLM 100 mg/kg s.c. alone): 0 µg/mL | Bleomycin B2 remaining in Kidney ([3]; BLM 100 mg/kg s.c. alone): 68.0 µg/mL | Bleomycin B2 remaining in Liver ([3]; BLM 100 mg/kg s.c. alone): 0 µg/mL | Bleomycin B2 remaining in Lung ([3]; BLM 100 mg/kg s.c. alone): 11.2 µg/mL | Bleomycin B2 remaining in Serum ([3]; BLM 100 mg/kg s.c. alone): 110 µg/mL | Bleomycin B2 remaining in Skin ([3]; BLM 100 mg/kg s.c. alone): 4.5 µg/mL | Bleomycin B2 remaining in Spleen ([3]; BLM 100 mg/kg s.c. alone): 4.0 µg/mL | Bleomycin B2 remaining in Stomach ([3]; BLM 100 mg/kg s.c. alone): 1.6 µg/mL
